In the supplement of paper PMC4862054 one finds normalised viability data, which are given here for 20 compounds.

Where “and” joins values, the source holds several entries; their conditions need not be identical. Equal values may be shown once.

Common to all, as to experiment: normalised viability (% of control), CellTiter-Blue; higher = more viable cells (about 100 = DMSO control)
Common to all, as to settings: incubation time: 72 h
(The colour change of resazurin is a common sign of viable cells or microbes.)

The test system of experiment [1] is MDA-MB-453. The protocol:
(§1)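 DSRT, CellTiter-Blue viability, 72 h incubation. Signal is normalised to DMSO and benzethonium chloride controls. Value is the normalised response at dose 6.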

The test system of experiment [2] is HDQ-P1. The protocol: as §1
Experiment [3] concerns CAL-85-1. The protocol:
as §1

Experiment [4] deals with CAL-51. The protocol:
as §1

Experiment [5] concerns DU-4475. The protocol: as §1
In experiment [6] the test system is CAL-148. Here is the method: as §1
Experiment [7] relates to MDA-MB-453. Here is the method:
(§2)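 DSRT, CellTiter-Blue viability, 72 h incubation. Signal is normalised to DMSO and benzethonium chloride controls. Value is the normalised response at dose 8.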
The source holds these as a separate data set.

Experiment [8] concerns HDQ-P1. Here is the method:
as §2
This is another data set of the same source.

Experiment [9] has as its system CAL-85-1. Here is the method:
as §2
The source holds these as a separate data set.

The subject of experiment [10] is CAL-51. Here is the method: as §2
The source holds these as a separate data set.

The subject of experiment [11] is DU-4475. The protocol: as §2
This is another data set of the same source.

The subject of experiment [12] is CAL-148. Here is the method:
as §2
The source holds these as a separate data set.

Experiment [13] deals with MDA-MB-453. The protocol:
(§3)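 DSRT, CellTiter-Blue viability, 72 h incubation. Signal is normalised to DMSO and benzethonium chloride controls. Value is the normalised response at dose 9.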
This is another data set of the same source.

Experiment [14] concerns CAL-85-1. Here is the method: as §3
The source holds these as a separate data set.

Experiment [15] has as its system CAL-51. Here is the method: as §3
This is another data set of the same source.

Experiment [16] concerns DU-4475. Here is the method:
as §3
This is another data set of the same source.

Experiment [17] relates to CAL-148. The protocol: as §3
This is another data set of the same source.

Take `O=c1[nH]cc(F)c(=O)[nH]1` [Fluorouracil] (300 nM): the normalised viability with MDA-MB-453 [1] was determined as 85.7%; with HDQ-P1 [2] it was 87.2%; with CAL-85-1 [3], 87.2%; in the experiment on CAL-51 [4], 101%; in the experiment on DU-4475 [5], 102%; in the experiment on CAL-148 [6], 96.7%.

Consider `O=c1[nH]cc(F)c(=O)[nH]1` [Fluorouracil] (3000 nM), for which the normalised viability in the experiment on MDA-MB-453 [7] came out at 85.7%; in the experiment on HDQ-P1 [8], 87.8%; in the experiment on CAL-85-1 [9] it was 62.6%; in the experiment on CAL-51 [10] it was 87.9%; in the experiment on DU-4475 [11], 81.6%; in the experiment on CAL-148 [12] it was 65.6%.

Consider `C[C@@H]1C=C2C(=O)O[C@@H]3CC[C@H](C1)[C@]23O` [Galiellalactone] (15000 nM), for which the normalised viability with MDA-MB-453 [7] turned out to be 20.3%; with HDQ-P1 [8] it was 75.3%; in the experiment on CAL-85-1 [9], 14.1%; in the experiment on CAL-51 [10], 124%; in the experiment on DU-4475 [11] it was 126%; in the experiment on CAL-148 [12], 52.8%.

For the compound `COC1=C2C[C@@H](C)C[C@H](OC)[C@H](O)[C@@H](C)/C=C(\C)[C@H](OC(N)=O)[C@@H](OC)/C=C\C=C(/C)C(=O)NC(=CC1=O)C2=O` [Geldanamycin] (3000 nM), the normalised viability in the experiment with MDA-MB-453 [7] was 8.03%; with HDQ-P1 [8] it was 16.7%; in the experiment with CAL-85-1 [9] it was 11.6%; in the experiment on CAL-51 [10], 8.15%; with DU-4475 [11], -0.3%; with CAL-148 [12], 10.8%.

On to `O=P(O)(NCCCl)NCCCl` [Ifosfamide mustard] (3000 nM), for which the normalised viability in the experiment on MDA-MB-453 [7] is 114%; in the experiment on HDQ-P1 [8] it was 106%; with CAL-85-1 [9], 96.5%; in the experiment on CAL-51 [10], 108%; with DU-4475 [11], 104%; in the experiment on CAL-148 [12] it was 100%.

As for `CS(=O)(=O)CCNCc1ccc(-c2ccc3ncnc(Nc4ccc(OCc5cccc(F)c5)c(Cl)c4)c3c2)o1` [Lapatinib] (3000 nM), the normalised viability in the experiment on MDA-MB-453 [7] is 33.4% and 38.4%; in the experiment on HDQ-P1 [8], 84.5% and 104%; with CAL-85-1 [9], 52.1% and 54.6%; with CAL-51 [10], 107% and 96.5%; in the experiment on DU-4475 [11], 117% and 105%; in the experiment on CAL-148 [12], 80.7% and 87.1%.

For `CS(=O)(=O)CCNCc1ccc(-c2ccc3ncnc(Nc4ccc(OCc5cccc(F)c5)c(Cl)c4)c3c2)o1` [Lapatinib] (10000 nM), the normalised viability with MDA-MB-453 [13] is 20.9% and 28.7%; with CAL-85-1 [14], 30% and 39.3%; with CAL-51 [15], 90% and 94.5%; in the experiment on DU-4475 [16] it was 117% and 99.2%; in the experiment on CAL-148 [17], 60.4% and 65.6%.

Take `Cn1cnc2c(F)c(Nc3ccc(Br)cc3F)c(C(=O)NOCCO)cc21` [MEK-162] (300 nM): the normalised viability in the experiment with MDA-MB-453 [7] was 136%; in the experiment with HDQ-P1 [8] it was 95.6%; in the experiment on CAL-85-1 [9] it was 86.7%; in the experiment on CAL-51 [10] it was 90%; with DU-4475 [11], 4.15%; in the experiment on CAL-148 [12] it was 87.1%.

`CCOc1cc2ncc(C#N)c(Nc3ccc(OCc4ccccn4)c(Cl)c3)c2cc1NC(=O)/C=C/CN(C)C` [Neratinib] (300 nM): the normalised viability stood at 79.9% in the experiment on MDA-MB-453 [7]; 122% in the experiment with HDQ-P1 [8]; 121% in the experiment with CAL-85-1 [9]; 88% with CAL-51 [10]; 87.2% in the experiment with DU-4475 [11]; 101% in the experiment with CAL-148 [12].

For the compound `COc1ccc(C2=N[C@@H](c3ccc(Cl)cc3)[C@@H](c3ccc(Cl)cc3)N2C(=O)N2CCNC(=O)C2)c(OC(C)C)c1` [Nutlin-3] (3000 nM), the normalised viability in the experiment on MDA-MB-453 [7] came out at 83.9%; with HDQ-P1 [8], 120%; with CAL-85-1 [9] it was 101%; in the experiment with CAL-51 [10], 73%; in the experiment on DU-4475 [11], 67.5%; in the experiment on CAL-148 [12], 72.6%.

Regarding `COC1=CC(c2cc3ccccc3[nH]2)=N/C1=C\c1[nH]c(C)cc1C` [Obatoclax] (3000 nM), the normalised viability in the experiment with MDA-MB-453 [7] turned out to be 33.4%; in the experiment on HDQ-P1 [8], 39.3%; in the experiment on CAL-85-1 [9] it was 31.2%; with CAL-51 [10], 38.5%; in the experiment with DU-4475 [11], 78.5%; in the experiment on CAL-148 [12], 59.6%.

Regarding `COC(=O)C[C@](O)(CCCC(C)(C)O)C(=O)O[C@@H]1C(OC)=C[C@]23CCCN2CCc2cc4c(cc2[C@H]13)OCO4` [Omacetaxine mepesuccinate] (3000 nM), the normalised viability in the experiment on MDA-MB-453 [7] turned out to be 5.64%; in the experiment on HDQ-P1 [8], 13.4%; in the experiment with CAL-85-1 [9], 2%; with CAL-51 [10] it was 5.99%; with DU-4475 [11], 3.79%; with CAL-148 [12], 5.63%.

In the case of `CC(=O)O[C@H]1C(=O)[C@@]2(C)[C@H]([C@H](OC(=O)c3ccccc3)[C@]3(O)C[C@H](OC(=O)[C@H](O)[C@@H](NC(=O)c4ccccc4)c4ccccc4)C(C)=C1C3(C)C)[C@]1(OC(C)=O)CO[C@@H]1C[C@@H]2O` [Paclitaxel] (300 nM), the normalised viability in the experiment on MDA-MB-453 [7] was determined as 24.7%; with HDQ-P1 [8], 26.6%; in the experiment with CAL-85-1 [9] it was 25.5%; with CAL-51 [10] it was 20.6%; with DU-4475 [11], 16.9%; in the experiment with CAL-148 [12], 16.1%.

With `CC(C)(C)c1cc(NC(=O)Nc2ccc(-c3cn4c(n3)sc3cc(OCCN5CCOCC5)ccc34)cc2)no1` [Quizartinib] (300 nM), the normalised viability in the experiment on MDA-MB-453 [7] was found to be 110%; in the experiment with HDQ-P1 [8] it was 103%; in the experiment on CAL-85-1 [9], 106%; in the experiment with CAL-51 [10], 102%; in the experiment on DU-4475 [11] it was 98.5%; in the experiment on CAL-148 [12] it was 102%.

On to `COc1cc(Nc2ncc(F)c(Nc3ccc4c(n3)NC(=O)C(C)(C)O4)n2)cc(OC)c1OC` [R406] (3000 nM), for which the normalised viability with MDA-MB-453 [7] is 110%; with HDQ-P1 [8] it was 98.3%; in the experiment on CAL-85-1 [9], 67.9%; with CAL-51 [10], 109%; in the experiment on DU-4475 [11], 92.6%; in the experiment with CAL-148 [12] it was 105%.

Consider `O=C(c1ccc(OCCN2CCCCC2)cc1)c1c(-c2ccc(O)cc2)sc2cc(O)ccc12` [Raloxifene] (3000 nM), for which the normalised viability amounted to 91.9% in the experiment with MDA-MB-453 [7]; 89.1% with HDQ-P1 [8]; 94.3% with CAL-85-1 [9]; 101% in the experiment with CAL-51 [10]; 121% in the experiment with DU-4475 [11]; 109% with CAL-148 [12].

As to `Cn1c(=O)c(F)c(Nc2ccc(I)cc2F)c2c(=O)n(C[C@@H](O)CO)cnc21` [TAK-733] (300 nM), the normalised viability with MDA-MB-453 [7] turned out to be 70.8%; in the experiment with HDQ-P1 [8] it was 63.6%; in the experiment with CAL-85-1 [9], 53.5%; with CAL-51 [10], 76.7%; in the experiment with DU-4475 [11], 0.88%; in the experiment on CAL-148 [12], 77.9%.

As for `CCS(=O)(=O)c1cccc(-c2cc(C(=O)NC3CCN(C)CC3)c(C)c3[nH]c4ncc(C)cc4c23)c1` [TAK-901] (300 nM), the normalised viability in the experiment with MDA-MB-453 [7] came out at 60%; with HDQ-P1 [8] it was 49.2%; in the experiment on CAL-85-1 [9], 53.2%; in the experiment on CAL-51 [10] it was 42.5%; with DU-4475 [11], 76.5%; in the experiment with CAL-148 [12] it was 74%.

As for `c1ccc(C2CN3CCSC3=N2)cc1` (centres undefined) [Tetramisole] (3000 nM), the normalised viability in the experiment with MDA-MB-453 [7] turned out to be 116%; in the experiment on HDQ-P1 [8], 101%; in the experiment on CAL-85-1 [9], 93.5%; in the experiment with CAL-51 [10] it was 101%; in the experiment with DU-4475 [11] it was 95.4%; with CAL-148 [12] it was 109%.

Turning to `CCCC(CCC)C(=O)O` [Valproic acid] (3000 nM), the normalised viability was 103% in the experiment on MDA-MB-453 [7]; 112% in the experiment on HDQ-P1 [8]; 90% in the experiment on CAL-85-1 [9]; 103% in the experiment with CAL-51 [10]; 88% in the experiment on DU-4475 [11]; 104% with CAL-148 [12].
